Experimental data as given in ChEMBL document CHEMBL4184308, “Melanogenesis inhibitory pregnane glycosides from Cynanchum atratum” (Bioorg Med Chem Lett, 2018).
Active and inactive are the calls of the source. The calls are words filed in the database; no cut-off is given here.

What follows are molecules tested on B16 (assay: Inhibition of melanin production in alpha-MSH-stimulated mouse B16 cells incubated for 24 hrs followed by alpha-MSH stimulation for 72 hrs in presence of compound).
Format: functional, cell-based

IC50 | SMILES | inhibition
21 µM | CO[C@H]1C[C@H](O[C@@H]2[C@H](C)O[C@@H](O[C@H]3[C@@H](OC)C[C@H](O[C@@H]4CC5=CC[C@H]6C(=O)[C@@](C)(C7=CC(=O)O[C@H]7C)CC[C@@H]6[C@@]5(C)C[C@H]4O)O[C@@H]3C)C[C@@H]2OC)O[C@H](C)[C@H]1O | Dose-dependent effect
> 50 µM | CO[C@H]1C[C@H](O[C@@H]2CC3=CC[C@H]4C(=O)[C@@](C)(C5=CC(=O)O[C@H]5C)CC[C@@H]4[C@@]3(C)C[C@H]2O)O[C@H](C)[C@H]1O | –
> 50 µM | CO[C@@H]1[C@@H](O)[C@H](O[C@H]2CC[C@@]3(C)C(=CC[C@H]4C(=O)O[C@@H]5CO[C@]6(C)OC(=O)/C(=C/C[C@@H]43)[C@H]56)C2)O[C@H](C)[C@H]1O | –
19 µM | CO[C@H]1[C@@H](O)[C@H](O[C@H]2CC[C@@]3(C)C(=CC[C@H]4C(=O)O[C@@H]5CO[C@]6(C)OC=C(CC[C@@H]43)[C@H]56)C2)O[C@H](C)[C@H]1O[C@H]1C[C@H](OC)[C@H](O)[C@H](C)O1 | Dose-dependent effect
33 µM | CO[C@H]1C[C@H](O[C@@H]2[C@H](C)O[C@@H](O[C@H]3[C@@H](OC)C[C@H](O[C@@H]4CC5=CC[C@H]6C(=O)[C@@](C)(C7=CC(=O)O[C@@H]7C)CC[C@@H]6[C@@]5(C)C[C@H]4O)O[C@@H]3C)C[C@@H]2OC)O[C@H](C)[C@H]1O | Dose-dependent effect
41 µM | CO[C@H]1O[C@@]2(C)OC[C@H]3OC(=O)[C@@H]4CC=C5C[C@@H](O[C@@H]6O[C@H](C)[C@@H](O)[C@H](OC)[C@H]6O)CC[C@]5(C)[C@H]4C/C=C/1[C@H]32 | –
4 µM | CO[C@H]1[C@@H](O)[C@H](O[C@H]2CC[C@@]3(C)C(=CC[C@H]4C(=O)O[C@@H]5CO[C@]6(C)OC=C(CC[C@@H]43)[C@H]56)C2)O[C@H](C)[C@H]1O[C@H]1C[C@H](OC)[C@H](O[C@H]2C[C@H](OC)[C@H](O)[C@@H](C)O2)[C@H](C)O1 | Dose-dependent effect

These molecules were tested against T1, Tyrosinase (Mus musculus) (UniProt P11344) (assay: Inhibition of mouse B16 cells derived tyrosinase at 30 uM).
T1 sequence (whole entry): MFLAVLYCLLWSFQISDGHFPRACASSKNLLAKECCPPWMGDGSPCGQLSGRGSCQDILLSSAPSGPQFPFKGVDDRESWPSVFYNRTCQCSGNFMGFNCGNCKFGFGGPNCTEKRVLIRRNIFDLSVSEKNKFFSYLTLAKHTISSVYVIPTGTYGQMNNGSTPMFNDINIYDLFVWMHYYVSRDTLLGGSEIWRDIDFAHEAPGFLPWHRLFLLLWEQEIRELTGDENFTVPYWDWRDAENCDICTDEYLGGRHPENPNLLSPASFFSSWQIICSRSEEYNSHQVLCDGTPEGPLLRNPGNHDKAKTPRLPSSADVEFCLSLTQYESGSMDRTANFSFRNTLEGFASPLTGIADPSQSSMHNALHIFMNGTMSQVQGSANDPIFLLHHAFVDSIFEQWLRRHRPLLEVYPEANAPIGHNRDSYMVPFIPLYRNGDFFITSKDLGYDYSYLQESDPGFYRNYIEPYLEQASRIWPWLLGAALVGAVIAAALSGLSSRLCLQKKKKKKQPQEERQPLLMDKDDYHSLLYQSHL

inhibition | SMILES
inactive | CO[C@H]1C[C@H](O[C@@H]2[C@H](C)O[C@@H](O[C@H]3[C@@H](OC)C[C@H](O[C@@H]4CC5=CC[C@H]6C(=O)[C@@](C)(C7=CC(=O)O[C@H]7C)CC[C@@H]6[C@@]5(C)C[C@H]4O)O[C@@H]3C)C[C@@H]2OC)O[C@H](C)[C@H]1O

The molecules below were run against T1, Tyrosinase (Mus musculus) (assay: Inhibition of mouse tyrosinase).

inhibition | SMILES
Active | CC(=O)c1cc(O)ccc1O
Active | CC(=O)c1c(O)cccc1O
